Results published in ChEMBL document CHEMBL1148111, “Synthesis and biological evaluation of hyperforin analogues. Part I. Modification of the enolized cyclohexanedione moiety” (J Nat Prod, 2002).

The compounds below were run against Sodium-dependent serotonin transporter (Rattus norvegicus, UniProt P31652) (assay: Inhibition of [3H]5HT reuptake at serotonin transporter in rat brain synaptosomes).
Sodium-dependent serotonin transporter, sequence (P31652 whole entry): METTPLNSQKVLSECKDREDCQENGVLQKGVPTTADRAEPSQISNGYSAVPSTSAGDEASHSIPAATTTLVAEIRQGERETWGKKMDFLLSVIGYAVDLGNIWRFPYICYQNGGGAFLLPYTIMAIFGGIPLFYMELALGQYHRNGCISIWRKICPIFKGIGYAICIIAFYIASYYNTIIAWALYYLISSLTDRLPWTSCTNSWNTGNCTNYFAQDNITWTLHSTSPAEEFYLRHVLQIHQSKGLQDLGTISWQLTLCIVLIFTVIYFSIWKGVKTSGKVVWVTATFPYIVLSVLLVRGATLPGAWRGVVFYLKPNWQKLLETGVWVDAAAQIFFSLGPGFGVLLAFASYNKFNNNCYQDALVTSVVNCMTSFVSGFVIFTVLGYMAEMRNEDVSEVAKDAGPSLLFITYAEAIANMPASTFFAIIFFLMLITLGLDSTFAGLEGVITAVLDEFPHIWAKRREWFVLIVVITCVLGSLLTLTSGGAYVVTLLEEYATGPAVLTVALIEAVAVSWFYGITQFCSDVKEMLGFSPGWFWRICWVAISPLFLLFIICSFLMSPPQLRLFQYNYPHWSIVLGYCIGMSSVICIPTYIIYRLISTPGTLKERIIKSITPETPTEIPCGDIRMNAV
Format: subcellular
`CC(C)=CCC[C@]1(C)[C@@H](CC=C(C)C)C[C@]2(CC=C(C)C)C(=O)C(CC=C(C)C)=C(O)[C@@]1(C(=O)C(C)C)C2=O` gave an IC50 of 2.05 µM.
For `CC(C)=CCC[C@]1(C)[C@@H](CC=C(C)C)C[C@]2(CC=C(C)C)C(=O)[C@]3(CC=C(C)C)O[C@@]2(O)[C@@]1(C(=O)C(C)C)C3=O`, the IC50 was greater than 18.1 µM.
`CC(C)=CCC[C@]1(C)[C@@H](CC=C(C)C)C[C@]23C[C@@H](C(C)(C)O)OC2=C(CC=C(C)C)C(=O)[C@]1(C(=O)C(C)C)C3=O` gave an IC50 greater than 18.1 µM.
`CC(=O)OC1=C(CC=C(C)C)C(=O)[C@]2(C(=O)C(C)C)C(=O)[C@]1(CC=C(C)C)C[C@H](CC=C(C)C)[C@@]2(C)CCC=C(C)C` [HYPERFORIN ACETATE] showed an IC50 greater than 17.3 µM.
Work on `CC(C)=C/C=C1\C(=O)[C@@]2(CC=C(C)C)C[C@H](CC=C(C)C)[C@@](C)(CCC=C(C)C)[C@](C(=O)C(C)C)(C1=O)C2=O` yielded an IC50 greater than 18.7 µM.
For `COc1cc(C(=O)OC2=C(CC=C(C)C)C(=O)[C@@]3(C(=O)C(C)C)C(=O)[C@]2(CC=C(C)C)C[C@H](CC=C(C)C)[C@@]3(C)CCC=C(C)C)cc(OC)c1OC` [HYPERFORINTRIMETHOXYBENZOATE], the IC50 was greater than 13.7 µM.
`CC(C)=CCC[C@]1(C)[C@@H](CC=C(C)C)C[C@@]2(CC=C(C)C)C(=O)[C@]1(C(=O)C(C)C)C(=O)C1=C2OC(C)(C)C=C1` [DEHYDROHYPERFORIN] gave an IC50 greater than 18.7 µM.
With `C=C(C)[C@@H]1C[C@@]23C[C@H](CC=C(C)C)[C@@](C)(CCC=C(C)C)[C@](C(=O)C(C)C)(C(=O)C(CC=C(C)C)=C2O1)C3=O` [DEHYDROFUROHYPERFORIN] the IC50 was greater than 18.7 µM.
In the case of `COC1=C(CC=C(C)C)C(=O)[C@]2(C(=O)C(C)C)C(=O)[C@]1(CC=C(C)C)C[C@H](CC=C(C)C)[C@@]2(C)CCC=C(C)C`, the IC50 is reported as greater than 18.2 µM.
`CC(C)=CCC[C@]1(C)[C@@H](CC=C(C)C)C[C@@]2(CC=C(C)C)C(=O)[C@@]1(C(=O)C(C)C)C(=O)C(CC=C(C)C)=C2OC(=O)c1cc([N+](=O)[O-])cc([N+](=O)[O-])c1` was tested, and the IC50 was greater than 13.7 µM.
For `CC(C)=CCC[C@]1(C)[C@@H](CC=C(C)C)C[C@]2(CC=C(C)C)C(=O)[C@@](O)(CC=C(C)C)C(=O)[C@@]1(C(=O)C(C)C)C2=O`, the IC50 was greater than 18.1 µM.
`CC(C)=CCC[C@]1(C)[C@@H](CC=C(C)C)C[C@]2(CC=C(C)C)C(=O)[C@](C)(CC=C(C)C)C(=O)[C@]1(C(=O)C(C)C)C2=O` [C-Methylhyperforin] was tested, and the IC50 was greater than 18.2 µM.
